Laboratory results: patent publication US20220088204A1, “ANTICANCER DRUGS AND METHODS OF MAKING AND USING SAME” (YALE UNIVERSITY, priority 2019, published 2022)
“Also recorded” adds a separate entry of the source.

Experiments:
[1] = test system: PEO1 ovarian cancer cells; experiment: pH-dependent cell growth inhibition, transient treatment; format: cell-based; conditions: pH 7.4 vs pH 6.2
Procedure: FIG. 9 depicts pH-dependent cell growth inhibition of PEO1 ovarian cancer cells in culture, treated transiently with various prodrugs of the invention, as described above.
FIG. 10 depicts pH-dependent cell growth inhibition of PEO1 ovarian cancer cells in culture, treated transiently with an anticancer kinase inhibitor drug, Osimertinib, or a compound of the invention, based on an active core of that drug, YU253673.
(§1) In order to evaluate pH-dependent activity, treatments are performed at atypical cell culture conditions. […] Several cell lines have been evaluated using this method and for each, cell seeding density and treatment duration is independently experimentally determined. Each experiment is normalized to sham and complete activity controls for each pH condition.
Similar results have been obtained from pH-dependent cell growth inhibition assays with other classes of Drug using the prodrug approach.

HeLa cells = experiment: pH-dependent cell uptake by flow cytometry; format: cell-based; conditions: HeLa cells in suspension, 5 μM, 1 hour, pH 7.4 vs pH 6.5
Excerpt: FIGS. 5A-5B depict representative flow cytometry traces of pH-dependent cell treatments. […] Normalized cell counts (Y-axes) are plotted vs. doxorubicin fluorescence intensity per cell (X-axes).

[2] = test system: MDA-MB-231 breast cancer cells; experiment: pH-dependent cell growth inhibition, CellTiter-Glo; format: cell-based, Human; conditions: 6 hours treatment at pH 7.4 vs pH 6.2, 72 hours growth
Procedure: Cells treated for 6 hours at pH 7.4 (normal physiological pH, X traces) or pH 6.2 (acidic solid tumor pH, Y traces) were subsequently allowed to grow in normal growth medium for 72 hours, then cell viability was evaluated using the CellTiter-Glo assay kit (Promega). Normalized percent cell growth inhibition is plotted on the left side of each panel and IC50 values reported at each pH from non-linear regression analysis.
as §1
Human MDA-MB-231 breast cancer cells seeded at low density on tissue culture treated 384-well plates, allowed to adhere and grow in serum-supplemented growth medium for 24 hours, then treated under pH-controlled conditions for 6 hours, and finally washed and grown in fresh growth media for 72 hours were assessed for cell survival using the CellTiter-Glo assay system (Promega) (FIG. 6).

[3] = cited from earlier work
[4] = Body weight of treated tumor-bearing mice; format: in vivo, Balb/c mice; conditions: IV once daily for 5 days, mice with EMT-6 flank tumors
Excerpt: FIG. 7 depicts representative in vivo study on the efficacy and toxicity of compounds of the invention. […] Mean tumor volume and mean body weight graphs are shown for groups of 10 tumor-bearing mice.

[5] = Blood levels after tail vein injection; format: in vivo, adult female balb/c mice
Procedure: Given that the drug's distribution and clearance can be expected to be substantially complete by about 6 hours after administration, in certain embodiments the peak intracellular dose is achieved long before this process might interfere to a significant degree, even assuming the altered metabolite is indeed compromised in its activity. […] In certain embodiments, the serum stability of YU241528 allows for effective therapy. […] In certain embodiments, the prodrug undergoes a different elimination path, as hepatobiliary elimination of weakly-ionic organic substances is sensitive to charge, size, and lipophilicity.

[6] = Serum stability of prodrug in 20% mouse serum (LCMS, 490 nm); format: in vitro ADME; conditions: 37° C.
Procedure: FIG. 4A depicts liquid chromatography data showing the stability of YU241528 in serum.
The prodrug strategies of this invention are thought to impart their benefits during the distribution and cell uptake steps of anticancer therapy. In certain embodiments, a prodrug is stable in the blood for a period sufficient to allow for cell uptake and systemic clearance. To test this, 50 μM YU241528 in a solution of PBS, pH 7.4, containing 20% mouse serum was incubated at 37° C. At regular intervals, aliquots were taken and mixed with 2 volumes of ethanol to precipitate serum proteins, then centrifuged. Supernatants were analyzed by LCMS. […] The predominant peak was identified as YU241528 by mass spectrometry.

[7] = Reductive activation / drug release in 5 mM GSH (simulated cytosol), LCMS; format: in vitro ADME; conditions: PBS containing 5 mM GSH, PBS pH 7.4, 5 mM GSH, 37° C., read-out: t1/2 of reduction of the disulfide
Procedure: In certain embodiments, the prodrug releases the active form of the drug once inside a cancer cell. Once inside the cell, drug release can be triggered by reduction of the disulfide bond in the linker. To evaluate the reductive activation of drug release, 50 μM YU241528 in a solution of PBS, pH 7.4, containing 5 mM GSH (a typical intracellular concentration of the predominant biological reducing agent) was incubated at 37° C. Aliquots were taken at regular intervals and analyzed by LCMS.

[8] = pKA of the ionizable group; format: physicochemical; conditions: read-out: acidic pKA of the carboxyl group
Excerpt: The Henderson-Hasselbalch equation allows for calculating the neutral fraction of an ionizable drug at healthy tissue vs. tumor extracellular pH, and thus predicting the associated cell-permeable fractions. […] The carboxyl group of YU241528 has an acidic pKA of ˜4.4, so the predicted membrane permeable fraction is ˜8-fold less at a pH of 7.4 than at 6.5.

Compound: C=CC(=O)Nc1cc(Nc2nccc(-c3cn(C)c4ccccc34)n2)c(OC)cc1N(C)CCN(C)C [Osimertinib]
- pH-dependent bias of cell growth inhibition [1]: slightly lower IC50 value at healthy pH 7.4

Compound: COc1cccc2c1C(=O)c1c(O)c3c(c(O)c1C2=O)C[C@@](O)(C(=O)CO)C[C@@H]3O[C@H]1C[C@H](N)[C@H](O)[C@H](C)O1 [doxorubicin, reference compound]
- pH preference of cell uptake (HeLa cells): greater uptake into cells at normal physiologic pH 7.4 than into cells at cancerous pH 6.5
- pH-dependent bias of cell growth inhibition [2]: greater growth inhibition at basic healthy pH
- basic pKA of the amine group [3]: ~8

Compound: COc1cccc2c1C(=O)c1c(O)c3c(c(O)c1C2=O)C[C@@](O)(C(=O)CO)C[C@@H]3O[C@H]1C[C@H](NC(=O)OCCSSCCCc2c(F)c(F)c(O)c(F)c2F)[C@H](O)[C@H](C)O1 [YU244206]
- pH-dependent bias of cell growth inhibition [2]: greater growth inhibition at acidic tumor pH
- weight loss (mean body weight) compared to sham treated controls [4]: no detectable weight loss

Compound: COc1cccc2c1C(=O)c1c(O)c3c(c(O)c1C2=O)C[C@@](O)(C(=O)CO)C[C@@H]3O[C@H]1C[C@H](NC(=O)OCCSSCc2ccc(C(=O)O)cc2)[C@H](O)[C@H](C)O1 [YU241528]
- pH preference of cell uptake (HeLa cells): preferentially taken up by cells at cancerous pH 6.5 versus cells at normal pH 7.4
- level in the blood at 6 hours post injection ([5]; 6 hours): detectable levels
- level in the blood at 24 hours post injection ([5]; 24 hours): undetectable
- half-life ([5]; female, balb/c, mouse, blood, intravenous, read-out: non-compartmental half-life in blood (converted)): ~1 h
- release of free doxorubicin in serum ([6]; 50 μM, 20% mouse serum, over 6 hours of incubation): no active doxorubicin is released; also recorded: no free doxorubicin was detected
- half-life at 50 μM ([6]; mouse, 20% mouse serum in PBS, pH 7.4, 50 μM, PBS pH 7.4, 20% mouse serum, read-out: t1/2 of interaction with serum): > 6 h
- half-life at 50 μM [7]: ~2.7 min
- pKa [8]: ~4.4

Compound: COc1cccc2c1C(=O)c1c(O)c3c(c(O)c1C2=O)C[C@@](O)(C(=O)CO)C[C@@H]3O[C@H]1C[C@H](NC(=O)OCCSSCCCCCCCC(=O)O)[C@H](O)[C@H](C)O1 [YU241531]
- pH-dependent bias of cell growth inhibition [2]: greater growth inhibition at acidic tumor pH
- weight loss (mean body weight) compared to sham treated controls [4]: no detectable weight loss
